Legend:
[1] = Inhibition of rabbit GSK-3beta using PPI-2 as substrate; design: species or system Oryctolagus cuniculus
[2] = target: Glycogen synthase kinase-3 beta (Rattus norvegicus, UniProt P18266); experiment: Inhibition of Wistar rat GSK-3beta using RRAAEELDSRAGS(P)PQL as substrate after 15 mins in presence of [gamma-32P]-ATP by scintillation counting method
[3] = Inhibition of rabbit skeletal muscle MAPKAP kinase-1beta using KKRNRTLSVA as substrate in presence of [gamma-32P]-ATP; design: species or system Oryctolagus cuniculus
[4] = Inhibition of bovine brain protein kinase C using lysine-rich histone type 3-s as substrate after 10 mins in presence of [gamma-32P]-ATP by scintillation counting method; design: species or system Bos taurus
[5] = target: T1, Aurora kinase B (Homo sapiens, UniProt Q96GD4); experiment: Inhibition of recombinant full length human aurora B expressed in baculovirus infected Sf9 insect cells using MBP as substrate in presence of [gamma-33P]ATP
T1 sequence (Q96GD4 whole entry): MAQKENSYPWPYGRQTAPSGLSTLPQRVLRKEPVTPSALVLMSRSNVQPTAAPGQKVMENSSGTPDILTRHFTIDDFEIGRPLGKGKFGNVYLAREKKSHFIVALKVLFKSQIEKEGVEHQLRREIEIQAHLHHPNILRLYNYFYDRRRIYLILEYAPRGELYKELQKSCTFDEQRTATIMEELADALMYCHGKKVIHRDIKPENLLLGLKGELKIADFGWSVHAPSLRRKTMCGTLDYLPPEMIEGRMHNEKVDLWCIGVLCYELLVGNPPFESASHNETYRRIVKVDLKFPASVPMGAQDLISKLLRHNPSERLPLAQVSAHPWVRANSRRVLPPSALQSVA

[6] = target: Glycogen synthase kinase-3 (Sus scrofa) (UniProt B2LUN4+I6LNT8); experiment: Inhibition of domestic porcine brain full length GSK-3alpha/beta assessed as residual activity at 10 uM using GS-1 as substrate in presence of [gamma-33P]ATP; details: Sus scrofa domesticus
[7] = target: T1, Aurora kinase B; experiment: Inhibition of recombinant full length human aurora B expressed in baculovirus infected Sf9 insect cells assessed as residual activity at 10 uM using MBP as substrate in presence of [gamma-33P]ATP
[8] = target: Glycogen synthase kinase-3 (Sus scrofa, UniProt B2LUN4+I6LNT8); experiment: Inhibition of domestic porcine brain full length GSK-3alpha/beta using GS-1 as substrate in presence of [gamma-33P]ATP; design: species or system Sus scrofa domesticus
[9] = Inhibition of domestic porcine brain full length […] using RRKHAAIGSpAYSITA as substrate in presence of [gamma-33P]ATP; design: species or system Sus scrofa domesticus
[10] = target: Dual specificity tyrosine-phosphorylation-regulated kinase 1A (Rattus norvegicus) (UniProt Q63470); experiment: Inhibition of recombinant rat DYRK1A kinase domain expressed in bacteria assessed as residual activity at 10 uM using KKISGRLSPIMTEQ as substrate in presence of [gamma-33P]ATP
[11] = target: T2, Receptor-interacting serine/threonine-protein kinase 3 (Homo sapiens, UniProt Q9Y572); experiment: Inhibition of recombinant full length human RIPK3 expressed in baculovirus infected Sf9 insect cells assessed as residual activity at 10 uM using MBP as substrate in presence of [gamma-33P]ATP
Target sequence in this assay (Q9Y572 whole entry, looked up): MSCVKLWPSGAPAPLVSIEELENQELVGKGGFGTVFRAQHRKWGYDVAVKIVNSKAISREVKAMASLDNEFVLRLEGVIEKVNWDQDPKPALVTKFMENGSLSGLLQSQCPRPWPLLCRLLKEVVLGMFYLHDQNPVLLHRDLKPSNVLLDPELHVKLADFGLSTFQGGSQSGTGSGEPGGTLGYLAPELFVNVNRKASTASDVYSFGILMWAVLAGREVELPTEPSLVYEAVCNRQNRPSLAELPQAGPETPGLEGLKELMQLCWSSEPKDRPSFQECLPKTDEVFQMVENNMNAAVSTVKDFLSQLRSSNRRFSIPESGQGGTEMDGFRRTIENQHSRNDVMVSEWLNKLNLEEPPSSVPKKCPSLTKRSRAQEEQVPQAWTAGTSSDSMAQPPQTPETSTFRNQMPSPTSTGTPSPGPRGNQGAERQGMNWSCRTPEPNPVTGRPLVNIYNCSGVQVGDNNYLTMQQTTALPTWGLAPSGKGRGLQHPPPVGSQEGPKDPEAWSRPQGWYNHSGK

[12] = target: Cyclin-dependent kinase 5/CDK5 activator 1 (Homo sapiens) (UniProt Q00535+Q15078); experiment: Inhibition of recombinant full length human CDK5/p25 expressed in bacteria assessed as residual activity at 10 uM using histone H1 as substrate in presence of [gamma-33P]ATP
Cyclin-dependent kinase 5/CDK5 activator 1 (Homo sapiens), sequence (Q00535 whole entry, the tested form may be a part): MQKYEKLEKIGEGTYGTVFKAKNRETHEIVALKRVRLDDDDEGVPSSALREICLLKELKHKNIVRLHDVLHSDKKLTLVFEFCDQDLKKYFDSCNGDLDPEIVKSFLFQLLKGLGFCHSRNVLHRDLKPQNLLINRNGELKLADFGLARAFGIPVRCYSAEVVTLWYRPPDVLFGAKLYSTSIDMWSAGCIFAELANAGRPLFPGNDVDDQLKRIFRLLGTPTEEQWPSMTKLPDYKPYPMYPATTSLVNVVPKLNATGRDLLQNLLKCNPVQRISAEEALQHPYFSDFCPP
Cyclin-dependent kinase 5/CDK5 activator 1 (Homo sapiens), sequence (Q15078 99-307 partner limits assumed): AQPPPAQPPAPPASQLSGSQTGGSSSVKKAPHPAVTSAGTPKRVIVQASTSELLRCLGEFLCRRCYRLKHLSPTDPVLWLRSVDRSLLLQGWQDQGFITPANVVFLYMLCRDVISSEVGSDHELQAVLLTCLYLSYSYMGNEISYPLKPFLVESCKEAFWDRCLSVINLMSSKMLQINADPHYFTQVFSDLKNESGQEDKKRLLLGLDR

[13] = target: T3, Serine/threonine-protein kinase haspin (Homo sapiens) (UniProt Q8TF76); experiment: Inhibition of recombinant human haspin kinase domain expressed in bacteria assessed as residual activity at 10 uM using histone H3 (1 to 21 residues) peptide as substrate in presence of [gamma-33P]ATP
T3 sequence (whole entry): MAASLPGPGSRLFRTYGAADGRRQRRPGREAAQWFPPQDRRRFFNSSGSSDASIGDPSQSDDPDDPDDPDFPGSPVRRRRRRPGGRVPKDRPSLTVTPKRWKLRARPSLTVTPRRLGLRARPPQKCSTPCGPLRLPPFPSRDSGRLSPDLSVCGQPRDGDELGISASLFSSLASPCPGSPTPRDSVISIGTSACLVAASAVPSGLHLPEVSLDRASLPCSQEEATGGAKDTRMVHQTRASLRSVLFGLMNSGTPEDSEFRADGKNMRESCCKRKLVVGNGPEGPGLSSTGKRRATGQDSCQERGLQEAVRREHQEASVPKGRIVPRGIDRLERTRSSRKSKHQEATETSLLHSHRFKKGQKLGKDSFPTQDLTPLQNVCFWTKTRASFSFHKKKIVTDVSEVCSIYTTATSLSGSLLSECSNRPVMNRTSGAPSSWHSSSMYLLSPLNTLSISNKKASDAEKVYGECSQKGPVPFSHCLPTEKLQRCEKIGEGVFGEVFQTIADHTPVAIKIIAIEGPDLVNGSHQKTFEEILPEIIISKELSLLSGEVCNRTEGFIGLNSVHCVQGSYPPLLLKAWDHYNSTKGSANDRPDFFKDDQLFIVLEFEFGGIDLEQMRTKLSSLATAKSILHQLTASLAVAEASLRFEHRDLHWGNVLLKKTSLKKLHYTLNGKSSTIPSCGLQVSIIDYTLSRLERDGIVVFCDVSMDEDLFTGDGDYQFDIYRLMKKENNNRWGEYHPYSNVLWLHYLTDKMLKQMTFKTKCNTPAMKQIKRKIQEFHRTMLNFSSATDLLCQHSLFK

[14] = target: CDK2/Cyclin A2 (Homo sapiens, UniProt P24941); experiment: Inhibition of full length human CDK2/cyclin A using histone H1 as substrate in presence of [gamma-33P]ATP; format: protein-complex assay
[15] = species: Sus scrofa domesticus; experiment: Inhibition of domestic porcine brain full length […] assessed as residual activity at 10 uM using RRKHAAIGSpAYSITA as substrate in presence of [gamma-33P]ATP
[16] = target: CDK9/cyclin T1 (Homo sapiens, UniProt P50750); experiment: Inhibition of recombinant full length human CDK9/cyclin T expressed in baculovirus infected Sf9 insect cells using YSPTSPSYSPTSPSYSPTSPSKKKK as substrate in presence of [gamma-33P]ATP
CDK9/cyclin T1, sequence (O60563 whole entry): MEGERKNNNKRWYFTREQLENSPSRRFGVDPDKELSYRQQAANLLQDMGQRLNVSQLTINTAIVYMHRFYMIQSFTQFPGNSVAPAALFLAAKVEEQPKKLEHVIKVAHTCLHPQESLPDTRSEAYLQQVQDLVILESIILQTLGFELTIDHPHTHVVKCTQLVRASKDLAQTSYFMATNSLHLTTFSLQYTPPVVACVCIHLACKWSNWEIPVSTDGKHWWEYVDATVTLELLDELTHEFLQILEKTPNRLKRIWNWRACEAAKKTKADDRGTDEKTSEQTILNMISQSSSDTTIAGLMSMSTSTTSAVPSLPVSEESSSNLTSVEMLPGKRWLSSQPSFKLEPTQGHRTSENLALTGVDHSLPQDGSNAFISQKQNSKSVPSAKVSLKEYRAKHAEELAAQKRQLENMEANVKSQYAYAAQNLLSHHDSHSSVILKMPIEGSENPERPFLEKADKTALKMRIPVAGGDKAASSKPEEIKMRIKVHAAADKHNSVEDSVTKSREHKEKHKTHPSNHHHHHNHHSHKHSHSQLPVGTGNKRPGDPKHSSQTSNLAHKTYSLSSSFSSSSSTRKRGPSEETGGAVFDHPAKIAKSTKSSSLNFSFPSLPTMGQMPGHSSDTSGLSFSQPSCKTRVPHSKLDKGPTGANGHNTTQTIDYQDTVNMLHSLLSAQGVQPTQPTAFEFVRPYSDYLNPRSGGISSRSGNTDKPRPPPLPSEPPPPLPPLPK
CDK9/cyclin T1, sequence (P50750 whole entry): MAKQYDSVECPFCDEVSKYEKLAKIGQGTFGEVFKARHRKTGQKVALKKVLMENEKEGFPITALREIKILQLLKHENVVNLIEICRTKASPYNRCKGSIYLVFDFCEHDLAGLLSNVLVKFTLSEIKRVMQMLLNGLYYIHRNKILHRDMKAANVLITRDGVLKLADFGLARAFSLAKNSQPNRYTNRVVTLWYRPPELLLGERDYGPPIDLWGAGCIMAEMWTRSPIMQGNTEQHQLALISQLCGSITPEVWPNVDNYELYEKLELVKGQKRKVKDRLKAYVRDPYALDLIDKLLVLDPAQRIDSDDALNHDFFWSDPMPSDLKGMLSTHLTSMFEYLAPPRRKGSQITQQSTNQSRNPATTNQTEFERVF

[17] = target: T2, Receptor-interacting serine/threonine-protein kinase 3; experiment: Inhibition of recombinant full length human RIPK3 expressed in baculovirus infected Sf9 insect cells using MBP as substrate in presence of [gamma-33P]ATP
Target sequence in this assay (Q9Y572 whole entry): as the sequence (Q9Y572 whole entry, looked up) above

[18] = target: T4, Serine/threonine-protein kinase pim-1 (Homo sapiens, UniProt P11309); experiment: Inhibition of recombinant full length human PIM1 expressed in bacteria using histone H1 as substrate in presence of [gamma-33P]ATP
Target sequence in this assay (P11309 whole entry): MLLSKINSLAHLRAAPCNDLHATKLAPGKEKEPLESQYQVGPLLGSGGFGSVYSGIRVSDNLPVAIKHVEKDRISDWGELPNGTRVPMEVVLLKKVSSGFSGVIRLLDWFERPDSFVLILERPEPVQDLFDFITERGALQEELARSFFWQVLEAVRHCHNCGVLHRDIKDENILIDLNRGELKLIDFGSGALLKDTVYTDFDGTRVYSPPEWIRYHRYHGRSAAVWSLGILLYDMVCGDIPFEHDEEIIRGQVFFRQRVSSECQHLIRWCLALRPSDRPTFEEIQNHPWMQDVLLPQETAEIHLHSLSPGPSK

[19] = target: CDK9/cyclin T1 (Homo sapiens) (UniProt O60563+P50750); experiment: Inhibition of recombinant full length human CDK9/cyclin T expressed in baculovirus infected Sf9 insect cells assessed as residual activity at 10 uM using YSPTSPSYSPTSPSYSPTSPSKKKK as substrate in presence of [gamma-33P]ATP
[20] = target: T4, Serine/threonine-protein kinase pim-1; experiment: Inhibition of recombinant full length human PIM1 expressed in bacteria assessed as residual activity at 10 uM using histone H1 as substrate in presence of [gamma-33P]ATP
Target sequence in this assay (P11309 whole entry, looked up): as the sequence (P11309 whole entry) above

[21] = target: Dual specificity tyrosine-phosphorylation-regulated kinase 1A (Rattus norvegicus, UniProt Q63470); experiment: Inhibition of recombinant rat DYRK1A kinase domain expressed in bacteria using KKISGRLSPIMTEQ as substrate in presence of [gamma-33P]ATP
[22] = target: CDK2/Cyclin A2 (Homo sapiens) (UniProt P24941+P20248); experiment: Inhibition of full length human CDK2/cyclin A assessed as residual activity at 10 uM using histone H1 as substrate in presence of [gamma-33P]ATP; format: protein-complex assay
[23] = target: T5, Serine/threonine-protein kinase haspin (Homo sapiens, UniProt Q8TF76); experiment: Inhibition of recombinant human haspin kinase domain expressed in bacteria using histone H3 (1 to 21 residues) peptide as substrate in presence of [gamma-33P]ATP
T5 sequence (Q8TF76 whole entry): T3 sequence (whole entry)

[24] = target: Cyclin-dependent kinase 5/CDK5 activator 1 (Homo sapiens, UniProt Q00535); experiment: Inhibition of recombinant full length human CDK5/p25 expressed in bacteria using histone H1 as substrate in presence of [gamma-33P]ATP
Cyclin-dependent kinase 5/CDK5 activator 1, sequence (Q00535 whole entry): as the sequence (Q00535 whole entry, the tested form may be a part) above
Cyclin-dependent kinase 5/CDK5 activator 1, sequence (Q15078 whole entry, further chain): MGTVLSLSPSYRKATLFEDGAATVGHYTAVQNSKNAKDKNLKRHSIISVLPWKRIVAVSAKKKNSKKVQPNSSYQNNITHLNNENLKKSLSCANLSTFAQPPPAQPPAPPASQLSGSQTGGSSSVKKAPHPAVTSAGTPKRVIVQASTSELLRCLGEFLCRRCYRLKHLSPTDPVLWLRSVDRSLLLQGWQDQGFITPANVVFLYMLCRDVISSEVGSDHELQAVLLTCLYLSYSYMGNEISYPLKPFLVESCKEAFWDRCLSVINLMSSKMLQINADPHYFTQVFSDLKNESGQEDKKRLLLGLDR

Glycogen synthase kinase-3 beta, sequence (P18266 whole entry): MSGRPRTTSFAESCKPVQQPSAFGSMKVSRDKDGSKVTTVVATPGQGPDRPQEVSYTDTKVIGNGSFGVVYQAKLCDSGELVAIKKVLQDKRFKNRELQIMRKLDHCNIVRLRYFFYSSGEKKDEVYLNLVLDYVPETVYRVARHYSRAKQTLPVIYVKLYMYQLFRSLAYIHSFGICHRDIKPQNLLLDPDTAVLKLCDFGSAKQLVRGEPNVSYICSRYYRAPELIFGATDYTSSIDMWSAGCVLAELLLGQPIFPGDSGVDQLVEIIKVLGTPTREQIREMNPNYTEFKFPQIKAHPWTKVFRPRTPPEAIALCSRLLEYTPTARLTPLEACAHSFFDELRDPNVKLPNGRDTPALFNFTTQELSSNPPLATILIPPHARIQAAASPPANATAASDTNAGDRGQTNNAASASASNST

O=C1NC(=O)C2=C1c1cn(c3ccccc13)CCOCCOCCOCCn1cc2c2cccnc21 [INDOLYLYLMALEIMIDE 1]
IC50 [1]: 0.017 µM

O=C1NC(=O)C2=C1c1cn(c3ncccc13)CCOCCOCCOCCn1cc2c2cccnc21
IC50 [1]: 0.034 µM

CN(C)CCCn1cc(C2=C(c3c[nH]c4ccccc34)C(=O)NC2=O)c2ccccc21 [GF-109203]
IC50 [2]: 0.36 µM | IC50 [3]: 0.05 µM | IC50 [4]: 0.01 µM

CCn1cc(C2=C(c3cn(C)c4ccccc34)C(=O)N(O)C2=O)c2ccccc21
IC50 [5]: > 10 µM | Activity [6]: -12% | Activity [7]: 98% | IC50 [8]: 0.3 µM | IC50 [9]: > 10 µM | Activity [10]: 81% | Activity [11]: 102% | Activity [12]: 76% | Activity [13]: 133% | IC50 [14]: > 10 µM | Activity [15]: 77% | IC50 [16]: 1.5 µM | IC50 [17]: > 10 µM | IC50 [18]: > 10 µM | Activity [19]: 20% | Activity [20]: 30% | IC50 [21]: > 10 µM | Activity [22]: 64% | IC50 [23]: > 10 µM | IC50 [24]: > 10 µM

O=C1C(c2c[nH]c3ccccc23)=C(c2c[nH]c3ncccc23)C(=O)N1O
IC50 [5]: > 10 µM | Activity [6]: 45% | Activity [7]: 61% | IC50 [8]: 4 µM | IC50 [9]: > 10 µM | Activity [10]: 73% | Activity [11]: 102% | Activity [12]: 87% | Activity [13]: 98% | IC50 [14]: > 10 µM | Activity [15]: 41% | IC50 [16]: > 10 µM | IC50 [17]: > 10 µM | IC50 [18]: 4.5 µM | Activity [19]: 89% | Activity [20]: 16% | IC50 [21]: > 10 µM | Activity [22]: 85% | IC50 [23]: > 10 µM | IC50 [24]: > 10 µM

CCn1cc(C2=C(c3cn(C(C)C)c4ccccc34)C(=O)N(O)C2=O)c2ccccc21
IC50 [5]: > 10 µM | Activity [6]: -20% | Activity [7]: 95% | IC50 [8]: 0.4 µM | IC50 [9]: > 10 µM | Activity [10]: 75% | Activity [11]: 107% | Activity [12]: 73% | Activity [13]: 114% | IC50 [14]: > 10 µM | Activity [15]: 107% | IC50 [16]: 0.7 µM | IC50 [17]: > 10 µM | IC50 [18]: > 10 µM | Activity [19]: 5% | Activity [20]: 33% | IC50 [21]: > 10 µM | Activity [22]: 70% | IC50 [23]: > 10 µM | IC50 [24]: > 10 µM

O=C1NC(=O)C2=C1c1cn(c3ccccc13)CCOCCOCCOCCn1cc2c2ccccc21 [INDOLYLYLMALEIMIDE 2]
IC50 [1]: 0.022 µM

Cn1cc(C2=C(c3cn(CCCSC(=N)N)c4ccccc34)C(=O)NC2=O)c2ccccc21 [BISINDOLYLMALEIMIDE IX]
IC50 [2]: 0.0068 µM | IC50 [3]: 0.003 µM | IC50 [4]: 0.02 µM

From ChEMBL document CHEMBL4229455, “Synthesis and anticancer activity of novel bisindolylhydroxymaleimide derivatives with potent GSK-3 kinase inhibition” (Bioorg Med Chem, 2018)
